# Read-outs that look alike come from different tables or passages of the source.
# Key:
# [1] = tested on: HT-29 (ATCC HTB-38, human colon carcinoma); assay: cytotoxicity, growth inhibition of HT-29 cells, Crystal Violet staining; format: cell-based; conditions: approximate IC50, three days of incubation at 37° C.
# Excerpt: (§1) The antitumour activity of the compounds of the present invention has been detected in vitro by culturing the tumour cells following the methodology described in Bergeron et al (1984), and by Schroeder et al (1981). Activity against different tumours as mouse lymphoma, human NSC lung carcinoma, human melanoma and human colon carcinoma has been observed.
# (§2) Biological activity: cells were maintained in logarithmic phase of growth in Eagle's Minimum Essential Medium, with Earle's Balanced Salts, with 2.0 mM L-glutamine, with non-essential amino acids, without sodium bicarbonate (EMEM/neaa); supplemented with 10% Fetal Calf Serium (FCS), 10^−2 M sodium bicarbonate and 0.1 g/l penicillin-G+streptomycin sulfate.
# (§3) The tumour cell lines employed have been P-388D1 (ATCC CCL-46, suspension culture of a lymphoid neoplasm from DBA/2 mouse), A549 (ATCC CCL-185, monolayer culture of a human lung carcinoma), HT-29 (ATCC HTB-38, monolayer culture of a human colon carcinoma) and SK-MEL-28 (ATCC HTB-72, monolayer culture of a human melanoma).
# (§4) A549, HT-29 and SK-MEL-28 were seeded into 16 mm wells at 2×10^4 cells per well in 1 ml aliquots of MEM 10FCS containing the indicated concentration of drug. A separate set of cultures without drug and was seeded as control growth to ensure that cells remained in exponential phase of growth. All determinations were carried out in duplicate. After three days of incubation at 37° C., 10% CO2 in a 98% humid atmosphere, the wells were stained with 0.1% Crystal Violet. An approximate IC50 was determined by comparing the growth in wells with drug to the growth in wells control.
# [2] = tested on: A549 (ATCC CCL-185, human lung carcinoma); assay: cytotoxicity, growth inhibition of A549 cells, Crystal Violet staining; format: cell-based; conditions: approximate IC50, three days of incubation at 37° C., read-out: IC50 (μM) A549 ATCC-CCL-L-185
# Excerpt: as §1, §2, §3, §4
# [3] = tested on: P-388D1 (ATCC CCL-46, lymphoid neoplasm from DBA/2 mouse); assay: cytotoxicity, growth inhibition of P-388D1 cells in culture; format: cell-based; conditions: approximate IC50, three days of incubation at 37° C., growth vs control wells
# Excerpt: as §1, §2, §3
# as §4, with “P-388D1 cells” for “A549, HT-29 and SK-MEL-28”, “1×10^4” for “2×10^4”, “5FCS” for “10FCS”, “drug” for “drug and”, “expotential” for “exponential”, “an” for “the wells were stained with 0.1% Crystal Violet. An”
# [4] = tested on: SK-MEL-28 (ATCC HTB-72, human melanoma); assay: cytotoxicity, growth inhibition of SK-MEL-28 cells, Crystal Violet staining; format: cell-based; conditions: approximate IC50, three days of incubation at 37° C.
# Excerpt: as §1, §2, §3, §4
melting point [°C],SMILES,IC50 [1] [µM],IC50 [2] [µM],IC50 [3] [µM],IC50 [4] [µM],"IC50 ([1]; Homo sapiens, HT-29, 72 h) [µM]","IC50 ([2]; Homo sapiens, A549, 72 h) [µM]","IC50 ([3]; Mus musculus, P388D1, 72 h) [µM]","IC50 ([4]; Homo sapiens, SK-MEL-28, 72 h) [µM]"
,"COc1ccc2c3c(c4ccccc4nc13)C=CN2 [Example 1, 3H-6-Methoxypyrido[2,3,4-kl]acridine]",0.5,0.05,0.5,0.05,,,,
220 to 223,"COc1cc([N+](=O)[O-])c2c3c(c4ccccc4nc13)C=CN2 [Example 3, 6-Methoxy-4-nitro-3H-pyrido[2,3,4-kl]acridine]",,,,,0.34,0.03,0.34,0.03
128 to 132,"COc1cc(NC(C)=O)c2c3c(c4ccccc4nc13)C=CN2 [Example 4, 4-Acetylamino-6-methoxy-3H-pyrido[2,3,4-kl]acridine]",,,,,1.64,0.03,1.64,0.03

# Source: patent publication US6559161B1, “Cytotoxic pyrido[2,3,4-ki]acridine derivatives, their preparation and their therapeutic use” (Universidad de Barcelona, priority 1999, dated 2003)
